Results from US20070015777A1, “Use of Inhibitors of the Ubiquitin Proteasome Pathway as a Method of Increasing Contractility of the Heart” (Myogen, Inc., priority 2005, published 2007).
Entries after “also recorded” stand apart in the source; their conditions may differ. Peptide text beside a SMILES is read from it. * marks the point of attachment. Cbz = O=C(OCc1ccccc1)*

Experiments:
[1] = test system: atrial natriuretic factor (ANF) secretion; test: Competitive ANF ELISA on media supernatants of phenylephrine-treated NRVM; type: cell-based; conditions: Rattus norvegicus, 48 h, phenylephrine 20 μM, 48 hours (FIG. 4), read-out: EC50 for suppression of PE-induced ANF secretion
Description: (§1) NRVM culture. For preparations of neonatal rat ventricular myocytes (NRVMs), hearts were removed from 10-20 newborn (1-2 days old) Sprague-Dawley rats. Isolated ventricles were pooled, minced and dispersed by three 20-minute incubations at 37° C. in Ads buffer (116 mM NaCl, 20 mM HEPES, 10 mM NaH2PO4, 5.5 mM glucose, 5 mM KCl, 0.8 mM MgSO4, pH 7.4) containing collagenase Type 11 (65 units/ml, Worthington) and pancreatin (0.6 mg/ml, GibcoBRL). Dispersed cells were applied to a discontinuous gradient of 40.5% and 58.5% (v/v) Percoll (Amersham Biosciences), centrifuged, and myocytes collected from the interface layer. […]
(§2) ANF and toxicity assays. ANF in media supernatants was quantitated by competitive ELISA using a monoclonal anti-ANF antibody (Biodesign) and a biotinylated ANF peptide (Phoenix Peptide). Total cellular protein was quantitated by standard Coomassie dye-binding assay; cells were lysed in protein assay reagent (BioRad) and absorbance at A595 was measured after 1 hour. Cytotoxicity was quantitated by measuring release of adenylate kinase (AK) from cultured NRVM into culture medium (ToxiLight kit, Cambrex).

[2] = test system: modulatory calcineurin interacting protein 1 (MCIP1); test: Cytoblot assay for MCIP1 protein content in NRVM; type: cell-based, rat
Description: as §1, with “layer. Myocyte preparations were pre-plated in Dulbecco's modified Eagle's medium (DMEM, Cellgro), supplemented with 10% (v/v) charcoal stripped fetal bovine serum (FBS, HyClone), 4 mM L-glutamine and 1% penicillin/streptomycin for 1 hour at 37° C. to reduce fibroblast contamination, then plated at a density of 2.5×10^5 cells per well on 6-well tissue culture plates (or 10,000 cells/well on 96-well tissue culture plates) coated with a 0.2% (w/v) gelatin solution.” for “layer.”
(§3) NRVM protein quantitation by cytoblot (alpha myosin, beta myosin, MCIP1). […] Plates were read in a 96-well luminometer (Packard Fusion).

[3] = test system: neonatal rat ventricular myocytes (NRVMs); conditions: NRVM cell culture model, Dreger 2002; cited from earlier work
[4] = test system: β-myosin heavy chain protein; test: Cytoblot assay for beta myosin heavy chain protein content in phenylephrine-treated NRVM; type: cell-based, rat; conditions: phenylephrine 20 μM, MG132 100 and 1000 nM, 48 hours, cytoblot (FIG. 2)
Description: as §1, with “layer. Myocyte preparations were pre-plated in Dulbecco's modified Eagle's medium (DMEM, Cellgro), supplemented with 10% (v/v) charcoal stripped fetal bovine serum (FBS, HyClone), 4 mM L-glutamine and 1% penicillin/streptomycin for 1 hour at 37° C. to reduce fibroblast contamination, then plated at a density of 2.5×10^5 cells per well on 6-well tissue culture plates (or 10,000 cells/well on 96-well tissue culture plates) coated with a 0.2% (w/v) gelatin solution.” for “layer.”
as §3

[5] = test system: MCIP1 protein; test: Western blot analysis for MCIP1 protein in NRVM; type: cell-based, rat; conditions: range of MG132 concentrations, 48 hours (FIG. 6)
Description: as §1
(§4) Western Blots. […] Protein concentrations were determined by the bicinchoninic acid method (BCA Protein Assay, Pierce) with bovine serum albumin as a standard. Equivalent quantities of protein samples (10 μg/lane) were denatured in Laemmli buffer and resolved on Tris-glycine SDS-PAGE gels (4-20% acrylamide gradient, Invitrogen). […]

[6] = test system: total ubiquitinated protein; test: Western blot analysis for total ubiquitinated protein in NRVM; type: cell-based, rat; conditions: range of MG132 concentrations, 48 hours (FIG. 6)
Description: as §1, §4

[7] = test system: NRVM; test: Cytotoxicity assay (adenylate kinase release, ToxiLight) in NRVM; type: cell-based, rat; conditions: 48 hours, at MG132 concentrations that suppress hypertrophy (FIG. 4)
Description: as §1, §2

[8] = test system: nuclear factor of activated T cells (NFAT); test: Calcineurin-dependent nuclear import of GFP-NFAT in adenovirus-infected NRVM (immunofluorescence); type: cell-based, rat; conditions: NRVM infected with adenovirus encoding activated calcineurin and GFP-NFAT, MG132 1 μM (FIG. 7)
Description: (§5) NRVM culture. For preparations of neonatal rat ventricular myocytes (NRVMs), hearts were removed from 10-20 newborn (1-2 days old) Sprague-Dawley rats. Isolated ventricles were pooled, minced and dispersed by three 20-minute incubations at 37° C. in Ads buffer (116 mM NaCl, 20 mM HEPES, 10 mM NaH2PO4, 5.5 mM glucose, 5 mM KCl, 0.8 mM MgSO4, pH 7.4) containing collagenase Type 11 (65 units/ml, Worthington) and pancreatin (0.6 mg/ml, GibcoBRL). Dispersed cells were applied to a discontinuous gradient of 40.5% and 58.5% (v/v) Percoll (Amersham Biosciences), centrifuged, and myocytes collected from the interface layer. Myocyte preparations were pre-plated in Dulbecco's modified Eagle's medium (DMEM, Cellgro), supplemented with 10% (v/v) charcoal stripped fetal bovine serum (FBS, HyClone), 4 mM L-glutamine and 1% penicillin/streptomycin for 1 hour at 37° C. to reduce fibroblast contamination, then plated at a density of 2.5×10^5 cells per well on 6-well tissue culture plates (or 10,000 cells/well on 96-well tissue culture plates) coated with a 0.2% (w/v) gelatin solution. After 24 hours in culture, myocyte preparations were transferred to serum-free maintenance medium (DMEM supplemented with 0.1% (v/v) Nutridoma (Roche), L-glutamine and penicillin/streptomycin). Where indicated, NRVM were treated with test compounds for a period of 48 hrs. […]

[9] = test system: SERCA; test: Western blot analysis of NRVM: SERCA; type: cell-based, rat; conditions: with or without phenylephrine 20 μM, MG132 370, 1500 and 3000 nM, 48 hours, Western blot (FIG. 3)
Description: as §1, §4

[10] = test system: phospho-phospholamban; test: Western blot analysis of NRVM: phospho-phospholamban; type: cell-based, rat; conditions: with or without phenylephrine 20 μM, MG132 370, 1500 and 3000 nM, 48 hours, Western blot (FIG. 3)
Description: as §1, §4

[11] = test system: phospholamban (PLB); test: Western blot analysis of NRVM: phospholamban; type: cell-based, rat; conditions: with or without phenylephrine 20 μM, MG132 370, 1500 and 3000 nM, 48 hours, Western blot (FIG. 3)
Description: as §1, §4

[12] = test system: alpha myosin heavy chain protein; test: Cytoblot assay for alpha myosin heavy chain protein content in NRVM; type: cell-based, rat; conditions: MG132 100 nM, 48 hours, cytoblot (FIG. 1)
Description: as §5, with “solution.” for “solution. After 24 hours in culture, myocyte preparations were transferred to serum-free maintenance medium (DMEM supplemented with 0.1% (v/v) Nutridoma (Roche), L-glutamine and penicillin/streptomycin). Where indicated, NRVM were treated with test compounds for a period of 48 hrs.”
as §3

[13] = test system: alpha myosin heavy chain; test: Western blot analysis of NRVM: alpha myosin heavy chain; type: cell-based, rat; conditions: with or without phenylephrine 20 μM, MG132 370, 1500 and 3000 nM, 48 hours, Western blot (FIG. 3)
Description: as §1, §4

Structure (SMILES): CC(C)C[C@@H](C=O)NC(=O)[C@H](CC(C)C)NC(=O)[C@H](CC(C)C)NC(=O)OCc1ccccc1 [MG132] (Cbz-Leu-Leu-Leu-aldehyde)
- EC50 [1]: ~0.02 µM
- EC50 ([2]; Rattus norvegicus, 48 hours, cytoblot (FIG. 5), read-out: EC50 for induction of cardiac MCIP1 expression): 0.01 µM
- MCIP1 protein expression (cytoblot) ([2]; range of MG132 concentrations, 48 hours (FIG. 5)): dose-dependent increase in expression of modulatory calcineurin interacting protein 1 (MCIP1); also recorded: increases cardiac modulatory calcineurin interacting protein 1 (MCIP1) protein expression
- anti-hypertrophic effect (β-MyHC levels, cell size and morphology, BNP, sarcomeric actin) [3]: anti-hypertrophic
- β-myosin heavy chain protein content [4]: effectively suppressed adrenergic agonist (phenylephrine) dependent upregulation of beta myosin heavy chain protein; also recorded: suppresses hypertrophic agonist-dependent increases in cardiac beta myosin heavy chain protein expression
- MCIP1 protein expression (Western blot) [5]: increases cardiac modulatory calcineurin interacting protein 1 (MCIP1) protein expression
- total ubiquitinated protein [6]: induced accumulation of ubiquitinated protein
- cytotoxicity (release of adenylate kinase) [7]: no release of adenylate kinase (AK); also recorded: non-cytotoxic concentrations
- calcineurin-dependent nuclear import of GFP-NFAT [8]: blocked the ability of constitutively activated calcineurin to promote nuclear import of NFAT; also recorded: suppresses calcineurin-dependent nuclear import
- expression of SERCA protein [9]: increased in vitro expression of cardiac SERCA protein; also recorded: increases expression of SERCA
- PLB phosphorylation (phospho-phospholamban) [10]: dose-dependent increase in PLB phosphorylation; also recorded: increases expression of SERCA, alpha myosin heavy chain and phospho-phospholamban
- expression of phospholamban (PLB) [11]: decreased expression of the SERCA inhibitory protein, phospholamban (PLB); also recorded: decreases expression of cardiac phospholamban
- alpha myosin heavy chain protein content [12]: significantly increased expression of alpha myosin heavy chain protein; also recorded: increases cardiac alpha myosin heavy chain protein expression
- expression of alpha myosin heavy chain (Western blot) [13]: increases expression of SERCA, alpha myosin heavy chain
